Where “and” joins values, the source holds several entries; their conditions need not be identical. Identical values can stand only once. Entries after “also recorded” stand apart in the source; their conditions may differ.
Experiments:
[1] = biological target: T1, T4 DNA ligase (Enterobacteria phage T4, UniProt P00970); experiment: Transformants after ligation of AhdI-linearized pUC19 in T4 DNA ligase buffer vs Quick Ligase buffer containing PEG 6000; type: biochemical; design: purchased NEB (New England Biolabs), Ipswich, Mass. #M0202; conditions: 1,2-PrD in regular ligase buffer, chemically competent cells
T1 sequence (P00970 1-487): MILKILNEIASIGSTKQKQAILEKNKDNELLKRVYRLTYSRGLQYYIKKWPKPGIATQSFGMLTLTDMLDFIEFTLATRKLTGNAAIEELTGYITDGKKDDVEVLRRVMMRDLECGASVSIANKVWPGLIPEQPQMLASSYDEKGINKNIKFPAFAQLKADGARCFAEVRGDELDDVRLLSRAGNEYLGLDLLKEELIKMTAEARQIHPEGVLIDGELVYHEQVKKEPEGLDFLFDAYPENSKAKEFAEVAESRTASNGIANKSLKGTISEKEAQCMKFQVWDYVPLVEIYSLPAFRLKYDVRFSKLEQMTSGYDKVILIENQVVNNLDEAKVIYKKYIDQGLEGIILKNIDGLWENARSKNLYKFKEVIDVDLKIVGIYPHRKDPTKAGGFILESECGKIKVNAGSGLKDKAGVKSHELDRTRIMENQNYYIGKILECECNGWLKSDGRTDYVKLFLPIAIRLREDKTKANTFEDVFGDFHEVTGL
Protocol: The Y-axis is transformants per 10 pg DNA (transformations w/chemically competent cells.) The X-axis is regular ligase buffer (RLB) with the percentage of added 1,2-PrD given in parentheses. The quick ligase buffer (QLB) has PEG in it to enhance ligation.
(§1) The reaction mixtures contained DNA at 50-100 ng and 1,2-PrD at different concentrations. 1 μl of regular concentration (NEB, Ipswich, Mass., #M0202; 400 units) or 1 μl of high concentration T4 DNA ligase (NEB, Ipswich, Mass., #M0202; 2000 units) was then added to a final volume of 21 μl in 1×T4 DNA Ligase Buffer (NEB, Ipwich, Mass., #B0202) or 1× Quick Ligase™ Buffer (NEB, Ipswich, Mass., #B2200).
For chemically competent cell transformations, the cell-DNA mixture was incubated on ice for 30 min, heat-shocked at 42° C. for 30 sec, then returned to ice for 5 min. […] Plates were inverted and incubated for 16 hrs at 37° C., followed by quantification of total colony numbers.
Ligations were performed in both buffers using 50 ng of AhdI-linearized pUC19 double-stranded DNA (containing single-base overhangs) following the conditions described in Example 1. A total of 10 pg DNA (40 μl of a 1:20 dilution of the SOC outgrowth) was used per plate and transformants were counted after 16 hrs at 37° C.

[2] = biological target: T1, T4 DNA ligase; experiment: Ligase activity titer assay with blunt-ended PhiX174-HaeIII fragments, agarose gel; type: biochemical; design: purchased NEB (New England Biolabs), Ipswich, Mass. #M0202; conditions: 6% 1,2-PrD, two-fold ligase dilution series, 30 min 25 C
Protocol: The ligase activity in the absence and presence of 6% 1,2-PrD was determined in a two-fold ligase dilution series. The symbol “*” denotes equivalent levels of ligation, showing that ligation efficiency was enhanced 4-fold. The first and last lanes contain DNA markers.
The effectiveness of the ligation enhancer was also established for blunt-ended DNA as follows: 20 μl reactions were set up containing two-fold serial dilutions of 2000 units of T4 DNA ligase, 200 ng PhiX174-HaeIII digest (NEB, Ipswich, Mass., #N3026), and regular ligase buffer with 200 ng phiX174-HaeIII blunt-ended fragments per 20 μl, in the absence and presence of 6% 1,2-PrD. The reactions were incubated for 30 min at room temperature (25° C.) followed by electrophoresis on a 1% agarose gel. 1,2-PrD enhanced T4 DNA ligase activity 4-fold in this titer reaction.

[3] = biological target: T1, T4 DNA ligase; type: biochemical; design: purchased NEB (New England Biolabs), Ipswich, Mass. #M0202; conditions: enhancer at 12%; no addition = 1-fold; single-base overhangs
Protocol: All were tested side-by-side using two ligation test systems which were: (a) cloning of a 500 bp amplicon made by Taq DNA polymerase into a T-tailed vector; and (b) recircularization of an AhdI-linearized plasmid. Both ligation test systems used DNA with single-base overhangs.
as §1
(§2) A standard assay uses 100 ng DNA, 1 μl of T4 DNA ligase, 21 μl 1×T4 DNA ligase buffer and varying amounts of enhancer.
(§3) Ligation reactions were incubated for 10 min at room temperature (25° C.) unless otherwise stated, then placed on ice for 2 min. In some experiments the ligase was heat-killed by incubation at 65° C. for 20 min. The ligation reactions were analyzed by 1% agarose gel electrophoresis to identify DNA species and determine the efficiency of […].
A volume of 2 μl from each ligation reaction was incubated with 50 μl of chemically competent (NEB, Ipswich, Mass., #C2987I) or electrocompetent (NEB, Ipswich, Mass., #C2989K) DH5 alpha E. coli cells.
(§4) For chemically competent cell transformations, the cell-DNA mixture was incubated on ice for 30 min, heat-shocked at 42° C. for 30 sec, then returned to ice for 5 min. A volume of 950 μl SOC medium (2% vegetable peptone or Tryptone, 0.5% yeast extract, 10 mM NaCl, 2.5 mM KCl, 10 mM MgCl2, 10 mM MgSO4 and 20 mM glucose) was added to the cell-DNA mixture, followed by a one hr 37° C. outgrowth period with agitation. A volume of 25-50 μl of appropriately diluted cells in SOC was spread onto Rich Agar plates (composition per liter: 10 g soy peptone, 5 g yeast extract, 10 g NaCl, 1 g MgCl2-6H2O, 1 g dextrose, 15 grams agar) supplemented with 100 μg/ml ampicillin. Plates were inverted and incubated for 16 hrs at 37° C., followed by quantification of total colony numbers.

[4] = tested on: chemically competent DH5 alpha E. coli cells; experiment: Mock ligation with supercoiled pUC19 DNA and transformation (control); type: cell-based; conditions: 12% 1,2-PrD; for Transformants from 2 pg SC DNA: supercoiled pUC19
Protocol: as §4
Mock DNA ligations were set up with 1 ng of supercoiled pUC19 DNA in 1× regular DNA ligase buffer in the presence and absence of 2000 units T4 DNA ligase and with or without 12% 1,2-PrD. Ligation reactions were conducted using the standard protocol in Example 1 and transformations with chemically competent DH5 alpha E. coli cells. 40 μl of a 1:20 dilution of the 1 ml SOC outgrowth containing 2 pg supercoiled DNA was plated onto agarose plates and incubated overnight.
This illustrates the enhancement is at the ligation step and not the transformation step.

[5] = biological target: T1, T4 DNA ligase; experiment: Ligation efficiency assay (standard assay, various ligases and buffers); type: biochemical; design: purchased NEB (New England Biolabs), Ipswich, Mass. #M0202; conditions: 1%-12% 1,2-PrD; various concentrations and types of DNA ligase, regular and Quick Ligase buffers
Protocol: as §1, §2, §3

SMILES: CC(O)CO (stereo not shown) [1,2-PrD, 1,2-propanediol]
- Transformants per 10 pg DNA compared with PEG-containing Quick Ligase buffer [1]: enhanced DNA ligation at least as much as PEG containing Quick Ligase; also recorded: achieved the level of transformation expected or greater than in PEG-containing (quick ligase) buffers
- Enhancement of T4 DNA ligase activity (ligation efficiency) in titer reaction [2]: 4 fold
- Recircularization Enhancement [3]: 11-fold
- Transformants from 2 pg SC DNA ([4]; 2000 U T4 DNA ligase, duplicate reactions): 82 and 73
- Transformants from 2 pg SC DNA ([4]; T4 DNA ligase none): 126
- Effect on transformation with supercoiled pUC19 DNA ([4]; with or without T4 DNA ligase): not statistically altered; also recorded: does not affect nor interfere with transformation
- Enhancement of ligation [5]: consistent enhancement of ligation

From patent publication US9499811B2, “Ligation enhancement” (New England Biolabs, Inc., priority 2011, dated 2016)
